Assay results from PMC8322138, “BRCA2 binding through a cryptic repeated motif to HSF2BP oligomers does not impact meiotic recombination” (Nature Communications, 2021).
Ends that are not written are not given here.

Columns and labels:
HSF2BP FL = molecular target: T1, HSF2BP FL (Homo sapiens, UniProt O75031); assay: ITC of BRCA2 fragments with full-length HSF2BP; format: binding; settings: for n (stoichiometry) / ΔG / −TΔS / ΔH (±error) / affinity (in words): 293 K
T1 construct: Human full-length HSF2BP WT and R200T were expressed; 6xHis-TEV (N, cleaved yes); made in house; host or cells: E. coli BL21 DE3 Rosetta2
T1 sequence (O75031 1-334): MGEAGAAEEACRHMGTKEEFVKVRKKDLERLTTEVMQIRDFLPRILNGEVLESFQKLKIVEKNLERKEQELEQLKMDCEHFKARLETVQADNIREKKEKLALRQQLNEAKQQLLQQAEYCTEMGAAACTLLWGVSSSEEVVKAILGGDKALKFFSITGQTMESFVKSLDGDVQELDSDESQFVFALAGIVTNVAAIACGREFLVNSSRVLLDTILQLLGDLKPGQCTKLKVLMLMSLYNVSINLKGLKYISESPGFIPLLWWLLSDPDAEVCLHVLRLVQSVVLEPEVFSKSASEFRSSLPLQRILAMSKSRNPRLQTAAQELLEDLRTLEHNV
Excerpt: (§1) Human full-length HSF2BP WT and R200T were expressed using a pETM11 (6xHis-TEV) expression vector in E. coli BL21 DE3 Rosetta2 cells, and purified as previously reported (Brandsma et al., Cell Rep 2019). The armadillo domain of HSF2BP, from aa 122 to aa 334, which we will further name ARM, was similarly expressed using a pETM11 (6xHis-TEV) expression vector in BL21 DE3 Rosetta2 cells and purified as full-length HSF2BP.
(§2) Human BRCA2 fragment F0 was expressed using a pET-22b expression vector as a fusion protein comprising BRCA2 from aa 2213 to aa 2342 (including mutation C2332T to avoid oxidation problems), a TEV site, a GB1 and 6xHis tag, in E. coli BL21 DE3 Star cells. The BRCA2 gene was optimized for expression in bacteria and synthesized by Genscript. In addition, smaller BRCA2 fragments were produced using the same strategy: FNMR and F15X corresponding to aa 2252 to aa 2342 and aa 2291 to aa 2343, respectively. The smallest fragment F15X∆12, from aa 2312 to aa 2342, was synthesized by Genecust.
(§3) ITC experiments were performed using a high-precision VP-ITC instrument (GE Healthcare) at 293 K. To characterize the interactions between HSF2BP and BRCA2 fragments (WT, variants), the proteins were dialyzed against 25 mM Tris pH 7.5, 250 mM NaCl, 5 mM β-mercaptoethanol. The HSF2BP (or ARM domain) was in the sample cell at 10–20 μM and was titrated by BRCA2 fragments at 40–100 μM, using 10 μL injections with 210 s intervals between each injection. The first 2 μL injection was ignored in the final data analysis. The integration of the peaks corresponding to each injection. the correction for the baseline and the fit were performed using the Origin 7.0 software provided by the manufacturer, to obtain the stoichiometry (N), dissociation constant (Kd), and enthalpy of complex formation (ΔH) for each interaction. Two replicates were performed for each experiment.

ARM domain of HSF2BP [1] = molecular target: T2, ARM domain of HSF2BP (Homo sapiens, UniProt O75031); assay: Analytical gel filtration of ARM with F15XΔ12; format: physicochemical; settings: SEC, Superose 6 Increase 10/300, ARM to peptide ratio 1:1.2, pH 7.5
T2 construct: The armadillo domain of HSF2BP, from aa 122 to aa 334; 6xHis-TEV (N, cleaved yes); made in house; host or cells: E. coli BL21 DE3 Rosetta2
T2 sequence (O75031 122-334): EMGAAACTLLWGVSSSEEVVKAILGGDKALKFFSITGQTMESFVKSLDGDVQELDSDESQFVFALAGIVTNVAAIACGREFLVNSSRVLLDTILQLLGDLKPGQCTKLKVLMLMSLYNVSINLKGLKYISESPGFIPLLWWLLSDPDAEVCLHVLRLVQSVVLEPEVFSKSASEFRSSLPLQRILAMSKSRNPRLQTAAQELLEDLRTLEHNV
Method: SEC was also used to characterize ARM and ARM bound to F15XΔ12. The ARM domain was loaded on a Superose 6 Increase 10/300 (GE Healthcare) alone (at 2 mg/ml) or bound to F15XΔ12 (at 5 mg/ml, ARM to peptide ratio 1:1.2) in 25 mM Tris-HCl buffer, pH 7.5, 250 mM NaCl, and 5 mM β-mercaptoethanol. The OD values from the elution of ARM alone were multiplied by 2.5 to be compared to the OD values from the elution of ARM bound to F15XΔ12.

ARM domain of HSF2BP [2] = molecular target: T2, ARM domain of HSF2BP; assay: ITC of BRCA2 fragments with HSF2BP armadillo domain; format: binding; settings: for n (stoichiometry) / ΔG / −TΔS / ΔH (±error): 293 K; for affinity relative to F0: compared with the affinity measured between ARM and F0
Excerpt: as §1, §2, §3

ARM domain of HSF2BP [3] = molecular target: T2, ARM domain of HSF2BP; assay: SEC-MALS of ARM free or bound to F15X; format: physicochemical
Method: Size-exclusion chromatography (SEC) coupled to MALS was used in order to measure the molecular masses of the complexes in solution. Therefore, HSF2BP and ARM proteins were loaded in the presence and absence of the BRCA2 fragment F15X on a Superdex 200 10/300 GL (GE Healthcare) using a HPLC Shimadzu system coupled to MALS/QELS/UV/RI (Wyatt Technology). The chromatography buffer was 25 mM Tris-HCl buffer, pH 7.5, 250 mM NaCl, 5 mM β-mercaptoethanol. The proteins were injected at 0.8–1 mg/ml in 100 μl. Data were analyzed using the ASTRA software; a calibration was performed with BSA as a standard.

ARM domain of HSF2BP [4] = molecular target: T2, ARM domain of HSF2BP; assay: SEC-SAXS of ARM bound to F15X; format: physicochemical
Method: SEC coupled to SAXS is available on the SWING beamline at synchrotron SOLEIL, in order to obtain a distance distribution corresponding to each sample in solution. The free HSF2BP protein as well as the complex between ARM and F15X were analyzed using a Bio SEC-3 column (Agilent) equilibrated in 25 mM Tris-HCl buffer, pH 7.5, 250 mM NaCl, and 5 mM β-mercaptoethanol. The proteins were loaded at a concentration of 6 and 10 mg/ml, in order to observe an elution peak at an OD280nm of 1 and 1.2 AU, respectively.

ARM domain of HSF2BP [5] = molecular target: T2, ARM domain of HSF2BP; assay: 2D NMR 1H-15N HSQC of 15N-labeled F0 with ARM; format: binding; settings: 15N-F0 100 μM, ARM 1:1, 950 MHz, 283 K; peaks of S2252-Q2342
Method: For NMR analysis, ^15N-labeled or ^15N- and ^13C-labeled BRCA2 fragments were produced in E. coli BL21 DE3 Star cells grown in M9 medium containing either 0.5 g/l ^15NH4Cl or 0.5 g/l ^15NH4Cl and 2 g/l ^13C-glucose, respectively. […]
The ^15N/^13C-labeled F0 fragment was analyzed by 3D heteronuclear NMR. in order to assign its Hn, N, Cα, Cβ, and Co chemical shifts, and identify its binding site to HSF2BP. Therefore, 3D NMR HNCA, CBCACONH, HNCACB, HNCANNH, HNCO, and HNCACO experiments were performed on a 700 MHz Bruker AVANCE NEO spectrometer equipped with a triple resonance cryogenic TCI probe at 283 K. The data were processed using Topspin 4.0 (Bruker) and analyzed using CCPNMR 2.4[49]. […] For binding studies, 2D NMR ^1H-^15N HSQC experiments were recorded on a 3-mm-diameter sample tube containing the ^15N-labeled F0 at 100 μM in the absence and presence of the ARM domain at 100 μM, on a 950 MHz Bruker Avance III spectrometer equipped with a triple resonance cryogenic TCI probe at 283 K.

[6] = pH 7.5, expt 1, error in brackets
[7] = pH 7.5, expt 2, error in brackets

DGTIKDRRLFMHHVSLEPITTVPFRTTKERQE [F15XΔ12]
n (stoichiometry) (HSF2BP FL; pH 7.5, expt 1): 0.89
ΔG (HSF2BP FL; pH 7.5, expt 1): -7.8 kcal/mol
−TΔS (HSF2BP FL; pH 7.5, expt 1): -6.1 kcal/mol
ΔH (±error) (HSF2BP FL; [6]): −1.7 (0.3) kcal/mol
n (stoichiometry) (HSF2BP FL; pH 7.5, expt 2): 0.90
ΔG (HSF2BP FL; pH 7.5, expt 2): -7.6 kcal/mol
−TΔS (HSF2BP FL; pH 7.5, expt 2): -5.8 kcal/mol
ΔH (±error) (HSF2BP FL; [7]): −1.8 (0.2) kcal/mol
affinity (in words) (HSF2BP FL; pH 7.5, listed as F15X∆12): in the micromolar range
affinity (in words) (HSF2BP FL; pH 7.5, listed as motif 2): micromolar affinity
stoichiometry (HSF2BP FL; BRCA2 peptide per HSF2BP): 1
affinity relative to F0 (weaker) (HSF2BP FL; weaker than the affinity of HSF2BP for F0): 1000 -fold
oligomerization of ARM upon binding (ARM domain of HSF2BP [1]; listed as F15X∆12): does not oligomerize
oligomerization of ARM upon binding (ARM domain of HSF2BP [1]; listed as motif 2): unable by itself to trigger oligomerization

CC[C@H](C)[C@H](NC(=O)[C@H](CCCNC(=N)N)NC(=O)[C@H](CC(=O)O)NC(=O)[C@H](Cc1ccccc1)NC(=O)[C@H](CCC(=O)O)NC(=O)[C@@H](N)CC(N)=O)C(=O)N[C@H](C(=O)N[C@@H](CCC(=O)O)C(=O)N[C@@H](CC(N)=O)C(=O)N[C@@H](CCC(N)=O)C(=O)N[C@@H](CCC(=O)O)C(=O)N[C@@H](CCCCN)C(=O)N[C@@H](CO)C(=O)N[C@@H](CC(C)C)C(=O)N[C@@H](CCCCN)C(=O)N[C@@H](C)C(=O)N[C@@H](CO)C(=O)N[C@@H](CCCCN)C(=O)N[C@@H](CO)C(=O)N[C@H](C(=O)N1CCC[C@H]1C(=O)N[C@@H](CC(=O)O)C(=O)NCC(=O)N[C@H](C(=O)N[C@H](C(=O)N[C@@H](CCCCN)C(=O)N[C@@H](CC(=O)O)C(=O)N[C@@H](CCCNC(=N)N)C(=O)N[C@@H](CCCNC(=N)N)C(=O)N[C@@H](CC(C)C)C(=O)N[C@@H](Cc1ccccc1)C(=O)N[C@@H](CCSC)C(=O)N[C@@H](Cc1c[nH]cn1)C(=O)N[C@@H](Cc1c[nH]cn1)C(=O)N[C@H](C(=O)N[C@@H](CO)C(=O)N[C@@H](CC(C)C)C(=O)N[C@@H](CCC(=O)O)C(=O)N1CCC[C@H]1C(=O)N[C@H](C(=O)N[C@H](C(=O)N[C@H](C(=O)N[C@H](C(=O)N1CCC[C@H]1C(=O)N[C@@H](Cc1ccccc1)C(=O)N[C@@H](CCCNC(=N)N)C(=O)N[C@H](C(=O)N[C@H](C(=O)N[C@@H](CCCCN)C(=O)N[C@@H](CCC(=O)O)C(=O)N[C@@H](CCCNC(=N)N)C(=O)N[C@@H](CCC(N)=O)C(=O)N[C@@H](CCC(=O)O)C(=O)O)[C@@H](C)O)[C@@H](C)O)C(C)C)[C@@H](C)O)[C@@H](C)O)[C@@H](C)CC)C(C)C)[C@@H](C)CC)[C@@H](C)O)[C@@H](C)O)[C@@H](C)CC [F15X]
n (stoichiometry) (ARM domain of HSF2BP [2]; pH 7.5, expt 1): 0.33
ΔG (ARM domain of HSF2BP [2]; pH 7.5, expt 1): -10.6 kcal/mol
−TΔS (ARM domain of HSF2BP [2]; pH 7.5, expt 1): -0.4 kcal/mol
ΔH (±error) (ARM domain of HSF2BP [2]; [6]): −10.2 (0.1) kcal/mol
n (stoichiometry) (ARM domain of HSF2BP [2]; pH 7.5, expt 2): 0.40
ΔG (ARM domain of HSF2BP [2]; pH 7.5, expt 2): -10.7 kcal/mol
−TΔS (ARM domain of HSF2BP [2]; pH 7.5, expt 2): -1.5 kcal/mol
ΔH (±error) (ARM domain of HSF2BP [2]; [7]): −9.2 (0.1) kcal/mol
affinity relative to F0 (ARM domain of HSF2BP [2]): about threefold higher
oligomeric state of ARM (ARM domain of HSF2BP [3]; SEC-MALS and SEC-SAXS): tetrameric
molecular weight of species in solution (ARM domain of HSF2BP [3]; SEC-MALS, Superdex 200 10/300 GL, 25 mM Tris-HCl pH 7.5, 250 mM NaCl, 5 mM β-mercaptoethanol): 94 kDa
Dmax of complex with ARM (ARM domain of HSF2BP [4]): 104 Å
Rg of complex with ARM (ARM domain of HSF2BP [4]): 34 Å
molecular weight of complex with ARM (ARM domain of HSF2BP [4]; Bio SEC-3, 25 mM Tris-HCl pH 7.5, 250 mM NaCl, theoretical mass of four ARM bound to two F15X 108 kDa): 109 kDa

B1: FNMR: BRCA2 fragment aa 2252 to aa 2342, recombinant (protein)
chain: SLFTCPENEEMVLSNSRIGKRRGEPLILVGEPSIKRNLLNEFDRIIENQEKSLKASKSTPDGTIKDRRLFMHHVSLEPITTVPFRTTKERQ
modifications: left off: GB1, C-terminal, cleaved | His6, C-terminal, cleaved
notes: BRCA2 fragment aa 2252 to aa 2342, recombinant
ΔG (ARM domain of HSF2BP [2]; pH 7.5, expt 1): -10.8 kcal/mol
−TΔS (ARM domain of HSF2BP [2]; pH 7.5, expt 1): -1.2 kcal/mol
ΔH (±error) (ARM domain of HSF2BP [2]; [6]): −9.6 (0.1) kcal/mol
ΔG (ARM domain of HSF2BP [2]; pH 7.5, expt 2): -10.5 kcal/mol
−TΔS (ARM domain of HSF2BP [2]; pH 7.5, expt 2): -1.1 kcal/mol
ΔH (±error) (ARM domain of HSF2BP [2]; [7]): −9.4 (0.2) kcal/mol
affinity relative to F0 (ARM domain of HSF2BP [2]): about threefold higher
decrease of HSQC peak intensities (ARM domain of HSF2BP [5]): more than 60%
